Reference: PMC6927412, “PMP–diketopiperazine adducts form at the active site of a PLP dependent enzyme involved in formycin biosynthesis” (Chemical Communications (Cambridge, England), 2019)

Experiments:
[1] = biological target: T1, ForI (Streptomyces kaniharaensis, UniProt A0A5S8ZI02); assay: UV-vis, mass spectrometry and crystal structure of the adduct; assay type: binding; conditions: covalent; reacts at PLP, bound species is the PMP-diketopiperazine adduct; 10 mM, pH 8, 4 °C
T1 construct: gene cof17; homodimer, active site from both monomers; residues 3 to 417 located in crystal
T1 sequence (A0A5S8ZI02 1-423): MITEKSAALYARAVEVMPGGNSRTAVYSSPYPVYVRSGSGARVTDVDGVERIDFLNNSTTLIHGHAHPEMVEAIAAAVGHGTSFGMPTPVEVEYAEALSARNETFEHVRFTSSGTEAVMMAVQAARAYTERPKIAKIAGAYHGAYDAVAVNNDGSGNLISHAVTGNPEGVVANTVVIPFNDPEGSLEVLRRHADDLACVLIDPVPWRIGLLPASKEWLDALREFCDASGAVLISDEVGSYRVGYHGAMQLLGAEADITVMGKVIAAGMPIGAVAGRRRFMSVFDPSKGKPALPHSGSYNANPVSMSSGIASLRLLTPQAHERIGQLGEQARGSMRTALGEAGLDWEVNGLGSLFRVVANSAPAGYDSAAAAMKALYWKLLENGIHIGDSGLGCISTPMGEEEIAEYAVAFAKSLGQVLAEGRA

[2] = biological target: T1, ForI; assay: UV-vis spectrum of PLP cofactor; PMP form seen in crystal; assay type: biochemical; conditions: amino donor half-reaction; L-Glu itself not seen in density
[3] = biological target: T1, ForI; assay: X-ray crystal structure, […] Å; assay type: binding; conditions: crystals incubated with L-Glu for 20 min; non-covalent
[4] = biological target: T1, ForI; assay: X-ray crystal structure, […] Å; mass spectrometry; assay type: binding; conditions: pH 8

`N[C@@H]1CONC1=O` [D-cycloserine] was tested. Which “UV-vis, mass spectrometry and crystal structure of the adduct” value [1] did it give?
The value was “Incubation of ForI with either D- or L-cycloserine immediately shows changes in the UV-vis spectrum”.

Which “UV-vis spectrum of PLP cofactor; PMP form seen in crystal” value [2] does the source give for `N[C@@H](CCC(=O)O)C(=O)O` [L-Glu] here?
Its value is “Incubating ForI with L-Glu shows a rapid change in the UV-vis spectrum”.

For `N[C@H]1CONC1=O` [L-cycloserine], which “UV-vis, mass spectrometry and crystal structure of the adduct” value [1] is on record?
Its value is “Incubation of ForI with either D- or L-cycloserine immediately shows changes in the UV-vis spectrum”.

For `Cc1ncc(COP(=O)(O)O)c(CN)c1O` [PMP], which “X-ray crystal structure, 1.56 Å” value [3] is on record?
Its value is “the pyridoxal co-factor is unattached to the enzyme, suggesting it to be PMP”.

With `Cc1ncc(COP(=O)(O)O)c(/C=N/OC[C@H]2NC(=O)[C@@H](CON)NC2=O)c1O` [PMP–diketopiperazine from D-cycloserine] as the compound, how does the “X-ray crystal structure, 1.5 Å; mass spectrometry” value ([4]; covalent adduct of PLP cofactor formed on incubation with 10 mM D-cycloserine) read?
The value was “identified the formation of external aldimine PLP–diketopiperazine adducts”.

`Cc1ncc(COP(=O)(O)O)c(/C=N/OC[C@@H]2NC(=O)[C@H](CON)NC2=O)c1O` [PMP–diketopiperazine from L-cycloserine] was tested. Which “X-ray crystal structure, 1.5 Å; mass spectrometry” value ([4]; covalent adduct of PLP cofactor formed on incubation with 10 mM L-cycloserine) did it give?
The value was “identified the formation of external aldimine PLP–diketopiperazine adducts”.
